For one assay, the system named is H. pylori. The experiment in a line: MIC testing by broth dilution, H. pylori. In kind it is cell-based, Helicobacter pylori. The protocol:
(§1) A standard broth dilution protocol was used in 96 well microplates containing a standard dilution of the microorganism to be tested in 100 microliters of the appropriate medium. Appropriate medium: E. coli, LB medium; Staphylococcus strains, Trypticase Soy; and for H. pylori and C. jejuni, Brain Heart Infusion. The compounds to be tested were set at 32 μg/ml in 200 microliters in well one and then serially diluted to provide a range from 32 to 0.06. The wells were scored visually at 24 h. The well where there was no growth was recorded as the MIC. Clostridium difficile was tested by agar diffusion and disk diffusion (Kirby Bower) methods under anaerobic conditions on Wilkins Chalgrin agar. In these assays, zone of inhibited growth was measured and compared by relative ratio to the zone recorded for NTZ.
(§2) Representative compounds of the invention were tested in a series of assays against a series of organisms as described above. […] The organisms tested include, C. difficile, H. pylori, C. jejuni, MRSA, S. epidermidis, and E. coli. S. epidermidis and E. coli were tested in the plank and biofilm assay. A disk diffusion assay was also used for C. difficile. Direct PFOR enzyme assays were also performed. All analogues and derivatives were not tested on every organism in every type of assay (the “-” in each table means that it was not tested).
(In general: Broth dilution looks for growth in wells or tubes with falling amounts of substance.)

In a further assay the test system is C. jejuni. The experiment in a line: MIC testing by broth dilution, C. jejuni. Type of assay: cell-based, Campylobacter jejuni. The protocol: as §1, §2
A further assay has as its system MRSA. The assay can be described thus: MIC testing by broth dilution, MRSA. Type of assay: cell-based, Staphylococcus aureus. The protocol:
as §1, §2

In another assay the test system is S. epidermidis. The experiment in a line: MIC testing by broth dilution, S. epidermidis plank. In kind it is cell-based, Staphylococcus epidermidis. As to the method: as §1, §2
Another assay deals with E. coli. The experiment in a line: MIC testing by broth dilution, E. coli plank. In kind it is cell-based, Escherichia coli. The protocol: as §1, §2
Where [1] appears, read: broth dilution, Brain Heart Infusion, 24 h, read-out: MIC (μM) H. pylori.
Setting [2] is: broth dilution, Brain Heart Infusion, 24 h, read-out: MIC (μM) C. jejuni.
The mark [3] stands for this setting: broth dilution, Trypticase Soy, 24 h, read-out: MIC (μM) MRSA.
The mark [4] stands for this setting: broth dilution, Trypticase Soy, 24 h, read-out: MIC (μM) S. epidermidis Plank.
Where [5] appears, read: broth dilution, LB medium, 24 h, read-out: MIC (μM) E. coli Plank.
Where [6] appears, read: Furan analogues table, read-out: MIC H. pylori.
Where [7] appears, read: Furan analogues table, read-out: MIC C. jejuni.
Setting [8] is: Furan analogues table, read-out: MIC MRSA.
The mark [9] stands for this setting: planktonic, Furan analogues table, read-out: MIC S. epidermidis Plank.
The mark [10] stands for this setting: planktonic, Furan analogues table, read-out: MIC E. coli Plank.

Values after ≈ are worked out from the molar mass of the structure shown. Like-named read-outs stand apart in the source and are kept apart here.

Take `O=C(Nc1ncc([N+](=O)[O-])s1)c1sccc1Cl` [VPC16a1009]: the MIC came to 5.2 µM (≈ 1.51 µg/mL) in the assay on H. pylori (Thiophene analogues table, read-out: MIC H. pylori); 20.7 µM (≈ 6 µg/mL) in the assay on C. jejuni (Thiophene analogues table, read-out: MIC C. jejuni); 20.7 µM (≈ 6 µg/mL) in the assay with MRSA (Thiophene analogues table, read-out: MIC MRSA); 55.2 µM (≈ 16 µg/mL) in the assay on S. epidermidis (planktonic, Thiophene analogues table, read-out: MIC S. epidermidis Plank); 110.5 µM (≈ 32 µg/mL) with E. coli (planktonic, Thiophene analogues table, read-out: MIC E. coli Plank).
`O=C(Cc1ccccc1)Nc1ncc([N+](=O)[O-])s1` [VPC16a1013]: the MIC is 21.6 µM (≈ 5.69 µg/mL) in the assay with H. pylori (setting [1]); 1.8 µM (≈ 0.474 µg/mL) in the assay with C. jejuni (setting [2]); 121.5 µM (≈ 32 µg/mL) in the assay with MRSA (setting [3]); 22.8 µM (≈ 6 µg/mL) in the assay with S. epidermidis (setting [4]); 121.5 µM (≈ 32 µg/mL) with E. coli (setting [5]).
In the case of `Cn1cc(C(=O)Nc2ncc([N+](=O)[O-])s2)c2ccccc21` [VPC16a1014], the MIC with H. pylori (setting [1]) is recorded as 1.2 µM (≈ 0.363 µg/mL); with C. jejuni (setting [2]), 19.9 µM (≈ 6.02 µg/mL); in the assay with MRSA (setting [3]) it was 105.9 µM (≈ 32 µg/mL); in the assay on S. epidermidis (setting [4]), 5.0 µM (≈ 1.51 µg/mL); with E. coli (setting [5]), 105.9 µM (≈ 32 µg/mL).
Regarding `O=C(Nc1ncc([N+](=O)[O-])s1)c1ccncc1F` [VPC16a1053], the MIC with H. pylori (setting [1]) is listed as 3.7 µM (≈ 0.992 µg/mL); in the assay on C. jejuni (setting [2]) it was 14.9 µM (≈ 4 µg/mL); in the assay with MRSA (setting [3]), 119.3 µM (≈ 32 µg/mL); in the assay on S. epidermidis (setting [4]), 119.3 µM (≈ 32 µg/mL); in the assay on E. coli (setting [5]), 119.3 µM (≈ 32 µg/mL).
Regarding `Cc1ccccc1-c1ccc(C(=O)Nc2ncc([N+](=O)[O-])s2)o1` [VPC16a1103], the MIC is recorded as 3.8 µM (≈ 1.25 µg/mL) with H. pylori (setting [6]); 24.3 µM (≈ 8 µg/mL) in the assay on C. jejuni (setting [7]); 12.1 µM (≈ 3.98 µg/mL) in the assay with MRSA (setting [8]); 12.1 µM (≈ 3.98 µg/mL) in the assay on S. epidermidis (setting [9]); 97.2 µM (≈ 32 µg/mL) in the assay on E. coli (setting [10]).
`O=C(Nc1ncc([N+](=O)[O-])s1)c1ccc(F)cc1F` [VPC16b1009]: the MIC is recorded as 0.4 µM (≈ 0.114 µg/mL) in the assay with H. pylori (setting [1]); 7.0 µM (≈ 2 µg/mL) with C. jejuni (setting [2]); 28.0 µM (≈ 7.99 µg/mL) in the assay with MRSA (setting [3]); 42.1 µM (≈ 12 µg/mL) in the assay on S. epidermidis (setting [4]); 112.2 µM (≈ 32 µg/mL) with E. coli (setting [5]).
For `O=C(Nc1ncc([N+](=O)[O-])s1)c1c(F)cccc1F` [VPC16b1010] the same measures were 0.7 µM (≈ 0.2 µg/mL), 14.0 µM (≈ 3.99 µg/mL), 28.0 µM (≈ 7.99 µg/mL), 28.0 µM (≈ 7.99 µg/mL) and 112.2 µM (≈ 32 µg/mL).
Taken in the same sequence, the figures for `O=C(Nc1ncc([N+](=O)[O-])s1)c1cc(F)c(F)cc1F` [VPC16b1012] were 0.8 µM (≈ 0.243 µg/mL), 9.9 µM (≈ 3 µg/mL), 33.0 µM (≈ 10 µg/mL), 33.0 µM (≈ 10 µg/mL) and 105.5 µM (≈ 32 µg/mL).
For `O=C(Nc1ncc([N+](=O)[O-])s1)c1cc(F)c(F)c(F)c1` [VPC16b1014] the same measures were 1.2 µM (≈ 0.364 µg/mL), 4.9 µM (≈ 1.49 µg/mL), 29.7 µM (≈ 9.01 µg/mL), 66.0 µM (≈ 20 µg/mL) and 105.5 µM (≈ 32 µg/mL).
In the case of `O=C(Nc1ncc([N+](=O)[O-])s1)c1ccc(F)c(F)c1` [VPC16b1019], the MIC in the assay on H. pylori (setting [1]) was determined as 1.8 µM (≈ 0.513 µg/mL); with C. jejuni (setting [2]), 5.3 µM (≈ 1.51 µg/mL); in the assay with MRSA (setting [3]), 10.5 µM (≈ 2.99 µg/mL); in the assay on S. epidermidis (setting [4]) it was 28.0 µM (≈ 7.99 µg/mL); with E. coli (setting [5]), 84.1 µM (≈ 24 µg/mL).
For `Cn1c(C(=O)Nc2ncc([N+](=O)[O-])s2)cc2ccccc21` [VPC16b1028] the same measures were 1.2 µM (≈ 0.363 µg/mL), 39.7 µM (≈ 12 µg/mL), 105.9 µM (≈ 32 µg/mL), 105.9 µM (≈ 32 µg/mL) and 105.9 µM (≈ 32 µg/mL).
For `O=C(Nc1ncc([N+](=O)[O-])s1)C1CC1c1ccccc1` (centres unmarked) [VPC16b1032] the same measures were 1.7 µM (≈ 0.492 µg/mL), 26.6 µM (≈ 7.7 µg/mL), 13.8 µM (≈ 3.99 µg/mL), 13.8 µM (≈ 3.99 µg/mL) and 110.6 µM (≈ 32 µg/mL).
Take `O=C(Nc1ncc([N+](=O)[O-])s1)c1ccc(-c2cccc(F)c2)o1` [VPC16b1115]: the MIC with H. pylori (setting [6]) is on record as 1.5 µM (≈ 0.5 µg/mL); in the assay with C. jejuni (setting [7]), 24.0 µM (≈ 8 µg/mL); in the assay on MRSA (setting [8]), 24.0 µM (≈ 8 µg/mL); in the assay with S. epidermidis (setting [9]), 12.0 µM (≈ 4 µg/mL); in the assay with E. coli (setting [10]), 96.0 µM (≈ 32 µg/mL).

Broadly, the MIC is the smallest concentration in the dilution series that meets the test's criterion for growth inhibition.

The values above are taken from patent US8835644B2, “Broad spectrum benzothiophene-nitrothiazolide and other antimicrobials” (University of Virginia Patent Foundation, priority 2009, dated 2014).
